Source: ChEMBL document CHEMBL4321876 (J Med Chem, 2020)

Tests used:
[1] = target: Histone acetyltransferase p300 (Homo sapiens, UniProt Q09472); assay: Inhibition of p300 (unknown origin) using histone H3 (1 to 21 residues) as substrate preincubated for 15 mins followed by substrate and [3H]acetyl-CoA addition and measured after 60 mins by scintillation counting analysis
[2] = system: MV4-11; assay: Antiproliferative activity against human MV4-11 cells measured after 3 days by celltiter-glo luminescence assay; assay type: functional, cell-based; settings: MV4-11, 72 h
[3] = Intrinsic clearance in mouse liver microsomes assessed per mg protein at 0.1 uM preincubated for 10 mins followed by NADPH addition and measured up to 60 mins by UPLC-MS/MS analysis; assay type: ADME, Microsome; settings: read-out: CLH
[4] = Intrinsic clearance in human liver microsomes assessed per mg protein at 0.1 uM preincubated for 10 mins followed by NADPH addition and measured up to 60 mins by UPLC-MS/MS analysis; assay type: ADME, Microsome; settings: read-out: CLH
[5] = Intrinsic clearance in rat liver microsomes assessed per mg protein at 0.1 uM preincubated for 10 mins followed by NADPH addition and measured up to 60 mins by UPLC-MS/MS analysis; assay type: ADME, Microsome; settings: read-out: CLH
[6] = Half life in Sprague-Dawley rat at 1 mg/kg, iv by LC-MS/MS analysis; assay type: ADME, organism-based; settings: in vivo
[7] = Cmax in Sprague-Dawley rat at 3 mg/kg, po by LC-MS/MS analysis; assay type: ADME, organism-based; design: dose 3 mg/kg, route oral; settings: in vivo
[8] = Clearance in Sprague-Dawley rat at 1 mg/kg, iv by LC-MS/MS analysis; assay type: ADME, organism-based; settings: in vivo
[9] = Volume of distribution at steady state in Sprague-Dawley rat at 1 mg/kg, iv by LC-MS/MS analysis; assay type: ADME, organism-based; settings: in vivo, read-out: Vdss
[10] = AUClast in Sprague-Dawley rat at 3 mg/kg, po by LC-MS/MS analysis; assay type: ADME, organism-based; design: dose 3 mg/kg, time 0 - last, route oral; settings: in vivo
[11] = AUClast in Sprague-Dawley rat at 1 mg/kg, iv by LC-MS/MS analysis; assay type: ADME, organism-based; design: dose 1 mg/kg, route intravenous, time 0 - last; settings: in vivo
[12] = Half life in Sprague-Dawley rat at 3 mg/kg, po by LC-MS/MS analysis; assay type: ADME, organism-based; settings: in vivo
[13] = Tmax in Sprague-Dawley rat at 3 mg/kg, po by LC-MS/MS analysis; assay type: ADME, organism-based; settings: in vivo
[14] = Oral bioavailability in Sprague-Dawley rat at 3 mg/kg by LC-MS/MS analysis; assay type: ADME, organism-based; settings: in vivo
[15] = Protein binding in rat plasma; assay type: ADME, cell-free; settings: read-out: PPB (converted)

Sequence of Histone acetyltransferase p300 (Q09472 whole entry, the tested form may be a part): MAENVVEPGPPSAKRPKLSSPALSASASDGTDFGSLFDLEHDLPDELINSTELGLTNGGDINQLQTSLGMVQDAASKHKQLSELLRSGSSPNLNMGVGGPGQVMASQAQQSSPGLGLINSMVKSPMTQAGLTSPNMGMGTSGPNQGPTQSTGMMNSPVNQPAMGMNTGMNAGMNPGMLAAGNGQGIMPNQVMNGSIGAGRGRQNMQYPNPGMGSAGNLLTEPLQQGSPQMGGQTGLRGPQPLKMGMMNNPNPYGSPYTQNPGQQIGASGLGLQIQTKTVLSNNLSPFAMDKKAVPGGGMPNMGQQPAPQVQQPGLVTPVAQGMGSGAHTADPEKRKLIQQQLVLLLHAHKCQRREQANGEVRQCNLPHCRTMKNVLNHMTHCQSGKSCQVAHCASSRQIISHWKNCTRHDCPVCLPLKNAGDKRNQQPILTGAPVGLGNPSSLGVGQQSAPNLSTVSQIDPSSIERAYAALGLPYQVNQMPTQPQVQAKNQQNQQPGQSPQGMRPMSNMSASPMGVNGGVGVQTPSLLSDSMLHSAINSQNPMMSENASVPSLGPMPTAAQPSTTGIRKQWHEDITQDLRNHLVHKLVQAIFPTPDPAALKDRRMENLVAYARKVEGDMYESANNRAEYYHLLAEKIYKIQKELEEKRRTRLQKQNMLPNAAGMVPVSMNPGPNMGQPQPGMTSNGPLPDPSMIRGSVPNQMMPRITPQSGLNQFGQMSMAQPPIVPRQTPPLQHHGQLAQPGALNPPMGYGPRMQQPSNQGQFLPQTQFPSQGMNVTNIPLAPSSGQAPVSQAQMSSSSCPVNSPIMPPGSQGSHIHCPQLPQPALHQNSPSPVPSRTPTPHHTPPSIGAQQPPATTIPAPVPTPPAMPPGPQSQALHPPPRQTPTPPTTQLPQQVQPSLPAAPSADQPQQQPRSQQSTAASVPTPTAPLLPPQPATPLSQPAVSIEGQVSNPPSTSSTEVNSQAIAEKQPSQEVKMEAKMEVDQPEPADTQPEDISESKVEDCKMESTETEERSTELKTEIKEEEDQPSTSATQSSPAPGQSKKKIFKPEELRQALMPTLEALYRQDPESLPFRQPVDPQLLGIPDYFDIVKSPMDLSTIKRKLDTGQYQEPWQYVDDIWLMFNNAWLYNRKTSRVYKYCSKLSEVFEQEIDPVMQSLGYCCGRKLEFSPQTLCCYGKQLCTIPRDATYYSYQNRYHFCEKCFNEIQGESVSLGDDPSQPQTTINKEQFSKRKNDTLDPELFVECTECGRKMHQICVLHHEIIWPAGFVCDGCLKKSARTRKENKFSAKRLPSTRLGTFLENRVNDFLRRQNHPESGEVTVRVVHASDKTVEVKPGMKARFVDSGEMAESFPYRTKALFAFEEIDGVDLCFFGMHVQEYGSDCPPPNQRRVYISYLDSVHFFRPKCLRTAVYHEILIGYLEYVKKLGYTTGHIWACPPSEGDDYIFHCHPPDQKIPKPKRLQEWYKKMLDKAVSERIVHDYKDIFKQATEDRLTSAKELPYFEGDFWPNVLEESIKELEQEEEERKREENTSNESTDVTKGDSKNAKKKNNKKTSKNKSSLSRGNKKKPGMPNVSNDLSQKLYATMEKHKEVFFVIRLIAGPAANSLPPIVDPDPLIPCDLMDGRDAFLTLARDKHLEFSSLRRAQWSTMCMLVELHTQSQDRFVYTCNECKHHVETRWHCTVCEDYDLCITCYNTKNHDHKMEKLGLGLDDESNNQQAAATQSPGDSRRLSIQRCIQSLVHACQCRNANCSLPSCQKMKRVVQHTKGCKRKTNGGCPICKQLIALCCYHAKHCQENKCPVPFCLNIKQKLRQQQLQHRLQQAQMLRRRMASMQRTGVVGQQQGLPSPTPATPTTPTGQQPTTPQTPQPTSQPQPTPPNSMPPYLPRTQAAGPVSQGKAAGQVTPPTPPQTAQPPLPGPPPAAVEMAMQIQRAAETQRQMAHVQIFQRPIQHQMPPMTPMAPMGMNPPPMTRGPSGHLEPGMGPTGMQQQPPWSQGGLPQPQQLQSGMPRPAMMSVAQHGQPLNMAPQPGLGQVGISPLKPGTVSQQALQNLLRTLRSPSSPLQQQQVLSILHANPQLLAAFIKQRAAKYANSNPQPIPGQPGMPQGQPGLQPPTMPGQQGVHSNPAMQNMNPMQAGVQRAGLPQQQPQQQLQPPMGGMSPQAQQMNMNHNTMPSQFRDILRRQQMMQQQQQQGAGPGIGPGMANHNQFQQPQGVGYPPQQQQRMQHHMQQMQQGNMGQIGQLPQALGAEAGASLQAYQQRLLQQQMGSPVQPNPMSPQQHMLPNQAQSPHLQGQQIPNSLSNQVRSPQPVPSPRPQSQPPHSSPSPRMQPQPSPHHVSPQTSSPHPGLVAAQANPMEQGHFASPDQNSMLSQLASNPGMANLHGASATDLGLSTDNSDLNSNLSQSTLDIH

Row | IC50 [1] [nM] | IC50 [2] [nM] | microsomal CLint at 0.1 µM [3] [µL/min/mg] | microsomal CLint at 0.1 µM [4] [µL/min/mg] | microsomal CLint at 0.1 µM [5] [µL/min/mg] | half-life [6] [min] | Cmax [7] [nM] | clearance [8] [mL/min/kg] | Vd [9] [L/kg] | AUC(0-t) [10] [µM·h] | AUC(0-t) [11] [µM·h] | half-life [12] [min] | Tmax [13] [min] | bioavailability [14] [%] | fraction unbound [15] | SMILES
1 | 46 | 156 | – | – | – | – | – | – | – | – | – | – | – | – | – | CNC(=O)Nc1ccc2c(c1)CC[C@]21OC(=O)N(CC(=O)N2Cc3ccccc3CC[C@H]2C)C1=O
2 | > 1000 | > 5000 | – | – | – | – | – | – | – | – | – | – | – | – | – | CNC(=O)Nc1ccc2c(c1)CC[C@@]21OC(=O)N(CC(=O)N2Cc3ccccc3CC[C@@H]2C(F)(F)F)C1=O
3 | 10 | 64.3 | – | – | – | – | – | – | – | – | – | – | – | – | – | CNC(=O)Nc1ccc2c(c1)CC[C@@]21OC(=O)N(CC(=O)N2Cc3ccccc3CC[C@H]2C)C1=O
4 | 4.3 | 10.7 | 360 | 209 | 411 | – | – | – | – | – | – | – | – | – | – | CNC(=O)Nc1ccc2c(c1)CC[C@@]21OC(=O)N(CC(=O)N2Cc3ccccc3CC[C@H]2C(C)C)C1=O
5 | > 1000 | – | – | – | – | – | – | – | – | – | – | – | – | – | – | CNC(=O)Nc1ccc2c(c1)CC[C@@]21OC(=O)N(CC(=O)N2Cc3ccccc3C[C@H]2C)C1=O
6 | 3.7 | 8.8 | 197 | 179 | 480 | 37.2 | 140 | 27.9 | 0.88 | 0.21 | 1.18 | 100 | 15 | 6 | – | CNC(=O)Nc1ccc2c(c1)CC[C@@]21OC(=O)N(CC(=O)N2Cc3ccccc3CC[C@H]2C2CC2)C1=O
7 | – | 20.4 | 219 | 255 | 265 | – | – | – | – | – | – | – | – | – | – | CNC(=O)Nc1ccc2c(c1)CC[C@@]21OC(=O)N(CC(=O)N2Cc3ccc(F)cc3CC[C@H]2C)C1=O
8 | 4 | 12 | – | – | – | – | – | – | – | – | – | – | – | – | – | CCC[C@@H]1CCc2ccccc2CN1C(=O)CN1C(=O)O[C@@]2(CCc3cc(NC(=O)NC)ccc32)C1=O
9 | > 1000 | > 5000 | – | – | – | – | – | – | – | – | – | – | – | – | – | CNC(=O)Nc1ccc2c(c1)CC[C@@]21OC(=O)N(CC(=O)N2Cc3ccccc3CC[C@@H]2C)C1=O

The remaining lines, values behind:

Row | SMILES | IC50 [1] [nM] | IC50 [2] [nM] | microsomal CLint at 0.1 µM [3] [µL/min/mg] | microsomal CLint at 0.1 µM [4] [µL/min/mg] | microsomal CLint at 0.1 µM [5] [µL/min/mg] | half-life [6] [min] | Cmax [7] [nM] | clearance [8] [mL/min/kg] | Vd [9] [L/kg] | AUC(0-t) [10] [µM·h] | AUC(0-t) [11] [µM·h] | half-life [12] [min] | Tmax [13] [min] | bioavailability [14] [%] | fraction unbound [15]
10 | CNC(=O)Nc1ccc2c(c1)CC[C@]21OC(=O)N(CC(=O)N2Cc3ccccc3CC[C@H]2C(F)(F)F)C1=O | 10 | 77 | – | – | – | – | – | – | – | – | – | – | – | – | –
11 | CNC(=O)Nc1ccc2c(c1)CC[C@@]21OC(=O)N(CC(=O)N2Cc3ccccc3OC[C@H]2C)C1=O | – | 72.8 | 37.3 | 20.5 | 82.5 | – | – | – | – | – | – | – | – | – | –
12 | CNC(=O)Nc1ccc2c(c1)CC[C@@]21OC(=O)N(CC(=O)N2Cc3ccccc3CC[C@H]2C(F)(F)F)C1=O | 2.6 | 8.2 | 166 | 147 | 134 | 40.2 | 160 | 35.1 | 1.34 | 0.36 | 0.89 | 109 | 30 | 13.5 | –
13 | Cn1cc(-c2ccc3c(n2)CC[C@]32NC(=O)N(CC(=O)N3Cc4cc(F)ccc4OC[C@H]3C(F)(F)F)C2=O)cn1 | 14 | 206 | – | – | – | – | – | – | – | – | – | – | – | – | –
14 | CNC(=O)Nc1ccc2c(c1)CC[C@@]21NC(=O)N(CC(=O)N2Cc3cc(F)ccc3OC[C@H]2C(F)(F)F)C1=O | > 100 | > 1000 | – | – | – | – | – | – | – | – | – | – | – | – | –
15 | Cn1cc(-c2cc3c(cn2)[C@]2(CC3)NC(=O)N(CC(=O)N3Cc4cc(F)ccc4OC[C@H]3C(F)(F)F)C2=O)cn1 | 30 | 825 | – | – | – | – | – | – | – | – | – | – | – | – | –
16 | CNC(=O)Nc1ccc2c(c1)CC[C@]21NC(=O)N(CC(=O)N2Cc3cc(F)ccc3OC[C@H]2C(F)(F)F)C1=O | 7.5 | 15.8 | 16.4 | 10.2 | 3.1 | – | 20 | – | – | 0.054 | – | 267 | 15 | – | –
17 | Cn1cc(-c2ccc3c(c2)CC[C@@]32OC(=O)N(CC(=O)N3Cc4cc(F)ccc4OC[C@H]3C(F)(F)F)C2=O)cn1 | 2.4 | 13.5 | 60.9 | 35 | 57.8 | 126 | 390 | 29.8 | 4 | 1.04 | 0.97 | 87 | 25.2 | 35 | 0.006
18 | CNC(=O)Nc1ccc2c(c1)CC[C@@]21OC(=O)N(CC(=O)N2Cc3ccc(F)cc3CC[C@H]2C2CC2)C1=O | – | 4 | 150 | 112 | 258 | – | – | – | – | – | – | – | – | – | –
19 | CNC(=O)Nc1ccc2c(c1)CC[C@@]21OC(=O)N(CC(=O)N2Cc3cc(F)ccc3OC[C@H]2C(F)(F)F)C1=O | – | 24.9 | 52.3 | 31.1 | 47.8 | – | 80 | – | – | 0.27 | – | 85.8 | 60 | – | –
20 | Cn1cc(-c2ccc3c(c2)CC[C@@]32OC(=O)N(CC(=O)N3Cc4cc(F)ccc4OC[C@H]3C3CC3)C2=O)cn1 | 4 | 3.7 | 113 | 81.5 | 121 | – | 57 | – | – | 0.09 | – | 72.6 | 30 | – | 0.007
21 | CNC(=O)Nc1ccc2c(c1)CC[C@]21NC(=O)N(CC(=O)N2Cc3cc(F)ccc3OC[C@H]2C2CC2)C1=O | 4.2 | 4.8 | 9.6 | 9.4 | 9.2 | – | 7 | – | – | 0.008 | – | 59.4 | 24.6 | – | –
22 | CNC(=O)Nc1ccc2c(c1)CC[C@@]21OC(=O)N(CC(=O)N2CCCc3ccccc3C2)C1=O | > 500 | > 1000 | – | – | – | – | – | – | – | – | – | – | – | – | –
23 | Cn1cc(-c2cnc3c(c2)CC[C@]32NC(=O)N(CC(=O)N3Cc4cc(F)ccc4OC[C@H]3C(F)(F)F)C2=O)cn1 | 10 | 118 | – | – | – | – | – | – | – | – | – | – | – | – | –
24 | CNC(=O)Nc1ccc2c(c1)CC[C@@]21OC(=O)N(CC(=O)N2Cc3ccc(F)cc3CC[C@H]2C(F)(F)F)C1=O | – | 2.9 | 106 | 161 | 94.4 | – | – | – | – | – | – | – | – | – | –
25 | Cn1cc(-c2ccc3c(c2)CC[C@]32NC(=O)N(CC(=O)N3Cc4cc(F)ccc4OC[C@H]3C3CC3)C2=O)cn1 | 1.3 | 3.5 | 155 | 33.7 | 40.8 | 41.4 | 620 | 20.7 | 1 | 0.97 | 1.53 | 59.4 | 30 | 21 | 0.021
26 | CNC(=O)Nc1ccc2c(c1)CC[C@@]21NC(=O)N(CC(=O)N2Cc3cc(F)ccc3OC[C@H]2C2CC2)C1=O | 73 | > 500 | – | – | – | – | – | – | – | – | – | – | – | – | –
